Data on 2 compounds can be found in paper PMC8692581, “A specific inhibitor of ALDH1A3 regulates retinoic acid biosynthesis in glioma stem cells” (Communications Biology, 2021).

Each structure is given as a SMILES string.

For orientation: Ki means the equilibrium dissociation constant of an inhibitor or competing ligand from its target.

Experiment [1] concerns the target T1, ALDH1A1 (Homo sapiens, UniProt P00352).
T1 construct: full-length, N-term 6xHis tagged
T1 sequence (P00352 1-501): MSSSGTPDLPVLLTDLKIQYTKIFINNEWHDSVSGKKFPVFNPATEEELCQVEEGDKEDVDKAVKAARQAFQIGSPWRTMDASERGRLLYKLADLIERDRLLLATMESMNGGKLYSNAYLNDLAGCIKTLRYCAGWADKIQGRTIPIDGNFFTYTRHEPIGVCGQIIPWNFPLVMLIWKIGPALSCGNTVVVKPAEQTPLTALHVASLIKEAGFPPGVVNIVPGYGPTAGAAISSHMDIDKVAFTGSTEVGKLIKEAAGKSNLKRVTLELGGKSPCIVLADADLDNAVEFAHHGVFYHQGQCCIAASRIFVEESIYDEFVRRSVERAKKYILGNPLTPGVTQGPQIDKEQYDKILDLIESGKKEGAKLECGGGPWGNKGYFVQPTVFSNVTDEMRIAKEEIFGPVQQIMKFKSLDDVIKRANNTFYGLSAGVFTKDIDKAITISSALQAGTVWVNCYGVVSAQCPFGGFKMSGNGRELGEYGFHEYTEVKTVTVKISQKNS
Description: steady-state enzyme kinetics, NADH absorbance at […] nm ([…] activity retained at […] inhibitor). In kind it is biochemical.

The target of experiment [2] is T2, ALDH1A3 (Homo sapiens, UniProt P47895).
T2 construct: full-length, N-term 6xHis tagged
T2 sequence (P47895 1-512): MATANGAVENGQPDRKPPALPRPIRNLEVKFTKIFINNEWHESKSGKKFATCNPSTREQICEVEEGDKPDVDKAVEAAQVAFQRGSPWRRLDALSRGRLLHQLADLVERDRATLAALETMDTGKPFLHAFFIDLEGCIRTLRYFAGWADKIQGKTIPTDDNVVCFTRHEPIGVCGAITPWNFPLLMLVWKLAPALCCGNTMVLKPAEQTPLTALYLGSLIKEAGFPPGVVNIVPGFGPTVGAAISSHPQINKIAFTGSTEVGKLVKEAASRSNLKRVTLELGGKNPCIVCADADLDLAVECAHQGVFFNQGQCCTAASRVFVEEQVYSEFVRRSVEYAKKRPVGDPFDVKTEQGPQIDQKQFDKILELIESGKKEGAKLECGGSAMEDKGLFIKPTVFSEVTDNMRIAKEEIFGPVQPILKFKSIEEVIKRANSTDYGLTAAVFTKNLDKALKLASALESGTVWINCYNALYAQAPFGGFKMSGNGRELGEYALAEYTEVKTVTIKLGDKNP
Description: X-ray co-crystal structure ([…] Å); steady-state enzyme inhibition kinetics (IC50 […]); thermal shift MS in GSC-326 lysate. In kind it is biochemical.

The target in experiment [3] is T2, ALDH1A3. Description: X-ray crystal structure ([…] Å), ternary with MCI-INI-3; crystals grown with […] NAD+. In kind it is binding.

`COC(=O)c1cc(-c2ccc3c(c2)OCO3)nc2cc(-c3ccccc3)nn12` [MCI-INI-3]: the inhibition constant (Ki) in experiment [1] amounted to 78.2 ± 14.4 µM; in experiment [2], 0.55 ± 0.11 µM.
In the case of `NC(=O)c1ccc[n+]([C@@H]2O[C@H](COP(=O)([O-])OP(=O)(O)OC[C@H]3O[C@@H](n4cnc5c(N)ncnc54)[C@H](O)[C@@H]3O)[C@@H](O)[C@H]2O)c1` [NAD^+], in experiment [3], the “X-ray crystal structure (2.8 Å), ternary with MCI-INI-3; crystals grown with 1 m” value is “The ligands NAD^+ and MCI-INI-3 are shown as gray and black sticks”.
